ChEMBL document CHEMBL3301448, “MMV Malaria Box screening against Toxoplasma gondii and Entamoeba histolytica”

System: Entamoeba histolytica
Assay: MMV: Primary screening was performed with each compound at a 30 uM final concentration and in triplicate in sealed 96-well polystyrene microtiter plates. Parasite inocula (100 ul) comprising 20000 parasites/ml were added to each well and grown at 37 degrees C in a humidified atmosphere of 5% CO2 for 72 h. Positive controls consisted of metronidazole at 1 mg/ml. The growth of E. histolytica trophozoites in each well was determined microscopically by measuring the diameters of the confluent cells in drug-containing wells relative to those in the nega- tive-control wells.
Format: functional, organism-based
Conditions: not given

Compound | IC50
O=C1c2ccccc2C2=Nc3ccccc3SC(c3cccc(F)c3)C12 (configuration not stated) | > 30 µM
Cc1ccccc1OCCSc1nc2ccc(NC(=O)c3ccccc3)cc2s1 | > 30 µM
COc1ccc(-c2nonc2NC(=O)c2cccc(Cl)c2)cc1OC | > 30 µM
Cc1cc(NC(=O)c2ccc(-c3ccccc3)cc2)no1 | > 30 µM
CCOc1cc2c(cc1OCC)C(c1cc(C)c(O)c(C)c1)NCC2 (configuration not stated) | > 30 µM
O=C1CC(O)(C(F)(F)C(F)(F)F)Oc2ccccc21 (configuration not stated) | > 30 µM
COc1cc(SC)ccc1C(=O)N1CCCC(C)C1 (configuration not stated) | > 30 µM
CC(C)c1ccc(CNCC(O)c2ccccc2)cc1 (configuration not stated) | > 30 µM
CC(C)(C)c1ccc(C(=O)Nc2c3c(nn2-c2cccc(Cl)c2)CSC3)cc1 | > 30 µM
CCOc1cc2c(cc1OCC)C(c1cc(Cl)c(O)c(OCC)c1)NCC2 (configuration not stated) | > 30 µM
OC(CNC1CCCC1)Cn1c2ccccc2c2ccccc21 (configuration not stated) | > 30 µM
COc1ccc(N2CCN(C(CNC(=O)CC(C)(C)C)c3ccc4c(c3)OCO4)CC2)cc1 (configuration not stated) | > 30 µM
CCCCCCn1c(=N)n(CC(O)COc2cccc(C)c2)c2ccccc21 (configuration not stated) | > 30 µM
Cc1ccc(NC(=O)Nc2cccc(Cl)c2)cc1F | > 30 µM
Oc1ccc(Br)cc1CN1CCN(Cc2cccc(F)c2)CC1 | > 30 µM
CCOC(=O)C1(Cc2ccccc2)CCN(Cc2cccc(OC)c2O)CC1 | > 30 µM
Oc1ccc(C(=C(Cl)Cl)c2ccc(O)cc2)cc1 | > 30 µM
CC(C)(C)c1ccc2c(c1)CN(Cc1ccc(Cl)cc1)CO2 | > 30 µM
O=c1nc(C=Cc2ccc(Cl)cc2)oc2ccccc12 | > 30 µM
O=C(NCc1ccco1)C1CCN(S(=O)(=O)c2ccc(Br)cc2)CC1 | > 30 µM
CN(C)c1ccc(N2C(N)=NC(N)=NC2(C)C)cc1 | > 30 µM
COc1ccc(Nc2nc(NCc3ccccc3)c3ccccc3n2)cc1 | > 30 µM
COc1ccc(OC)c(C2C3=C(CC(C)(C)CC3=O)N(c3ccc(Cl)c(Cl)c3)C3=C2C(=O)CC(C)(C)C3)c1 | > 30 µM

Compound | IC50
COc1ccc(CN2CCN(Cc3ccccc3)CC2)c(O)c1 | > 30 µM
COc1cc2c(cc1OC)C1=NNC(=O)C1=NC(C)(C)C2 | > 30 µM
Oc1c(CN2CCN(c3ccccc3F)CC2)cc(Br)c2cccnc12 | > 30 µM
OC(CNCc1ccccc1)Cn1c2ccccc2c2ccccc21 (configuration not stated) | > 30 µM
Oc1c2c(nc3cc(-c4ccccc4)nn13)CCCC2 | > 30 µM
CCCCc1c(C)nc2c(OC)cccc2c1O | > 30 µM
OC1CCCCC1C1(NC(=S)Nc2ccccc2)CCCCC1 (configuration not stated) | > 30 µM
OC1=C2C(=Nc3ccccc3SC2c2ccc(Br)cc2)c2ccccc21 (configuration not stated) | > 30 µM
COc1ccc(C)c2sc(N(Cc3cccnc3)C(=O)c3ccc(C#N)cc3)nc12 | > 30 µM
Clc1ccc2c(N3CCCC3)ccnc2c1 | > 30 µM
CCOC(=O)C1CCN(C(=O)CN2C(=O)c3ccccc3C2c2c[nH]c3ccccc23)CC1 (configuration not stated) | > 30 µM
CCOc1ccc(CCNC(=O)c2cccs2)cc1OCC | > 30 µM
COc1ccc(C(=O)C2CC2c2ccc(Cl)cc2)cc1 (configuration not stated) | > 30 µM
Cc1cc(N2CCN(C3CCCC3)CC2)n2c(nc3ccccc32)c1C#N | > 30 µM
CCCCCn1c(=N)n(CC(O)COc2cccc(C)c2)c2ccccc21 (configuration not stated) | > 30 µM
O=c1c2c([nH]c3ccccc13)CCCC2 | > 30 µM
CCCCOc1ccc(C(=O)Nc2cc(C)on2)cc1 | > 30 µM
CCc1ccc(Nc2cc(C)nc3nc(C)nn23)cc1 | > 30 µM
CCN(CC)S(=O)(=O)c1ccc(-c2csc(Nc3ccc(C)c(C)c3)n2)cc1 | > 30 µM
CCN1CCN(c2c(C(=O)c3ccccc3)cnc3cc(OC)c(OC)cc23)CC1 | > 30 µM
Cc1c(C)n(CC(O)CNC2CCCCC2C)c2ccccc12 (configuration not stated) | > 30 µM
Cc1ccc(S(=O)(=O)c2c(COC(=O)c3cccc(C)c3)c(-c3ccccc3)nn2C)cc1 | > 30 µM
CCCCN(CCCC)S(=O)(=O)c1ccc(NC(=O)c2ccco2)cc1 | > 30 µM

System: Toxoplasma gondii
Assay: MMV: A total of 100ul of inoculum was added to each well (parasite/cell ratio, ~10:1; final volume, 200 ul). Six hours after inoculation, nonadherent parasites were removed, and 100 ul of complete DMEM (1% penicillin-streptomycin, 3% FBS) supplemented with inhibitors at different concentrations (2-fold serial dilutions starting from 30 uM) was added to all except the negative-control wells. Positive controls, consisting of pyrimethamine (PYR) and sulfadiazine (SDZ) (20-mg/ml stocks in DMSO), were tested at a 2mg/ml final concentration. Each test was performed in triplicate.
Format: functional, organism-based
Conditions: 6 h

Compound | IC50
O=C1c2ccccc2C2=Nc3ccccc3SC(c3cccc(F)c3)C12 (configuration not stated) | 18.7 µM
Cc1ccccc1OCCSc1nc2ccc(NC(=O)c3ccccc3)cc2s1 | > 30 µM
COc1ccc(-c2nonc2NC(=O)c2cccc(Cl)c2)cc1OC | > 30 µM
Cc1cc(NC(=O)c2ccc(-c3ccccc3)cc2)no1 | 21.1 µM
CCOc1cc2c(cc1OCC)C(c1cc(C)c(O)c(C)c1)NCC2 (configuration not stated) | 12.8 µM
O=C1CC(O)(C(F)(F)C(F)(F)F)Oc2ccccc21 (configuration not stated) | > 30 µM
COc1cc(SC)ccc1C(=O)N1CCCC(C)C1 (configuration not stated) | > 30 µM
CC(C)c1ccc(CNCC(O)c2ccccc2)cc1 (configuration not stated) | 18.1 µM
CC(C)(C)c1ccc(C(=O)Nc2c3c(nn2-c2cccc(Cl)c2)CSC3)cc1 | > 30 µM
CCOc1cc2c(cc1OCC)C(c1cc(Cl)c(O)c(OCC)c1)NCC2 (configuration not stated) | > 30 µM
OC(CNC1CCCC1)Cn1c2ccccc2c2ccccc21 (configuration not stated) | > 30 µM
COc1ccc(N2CCN(C(CNC(=O)CC(C)(C)C)c3ccc4c(c3)OCO4)CC2)cc1 (configuration not stated) | > 30 µM
CCCCCCn1c(=N)n(CC(O)COc2cccc(C)c2)c2ccccc21 (configuration not stated) | > 30 µM
Cc1ccc(NC(=O)Nc2cccc(Cl)c2)cc1F | > 30 µM
Oc1ccc(Br)cc1CN1CCN(Cc2cccc(F)c2)CC1 | > 30 µM
CCOC(=O)C1(Cc2ccccc2)CCN(Cc2cccc(OC)c2O)CC1 | > 30 µM
Oc1ccc(C(=C(Cl)Cl)c2ccc(O)cc2)cc1 | > 30 µM
CC(C)(C)c1ccc2c(c1)CN(Cc1ccc(Cl)cc1)CO2 | 20.4 µM
O=c1nc(C=Cc2ccc(Cl)cc2)oc2ccccc12 | > 30 µM
O=C(NCc1ccco1)C1CCN(S(=O)(=O)c2ccc(Br)cc2)CC1 | > 30 µM
CN(C)c1ccc(N2C(N)=NC(N)=NC2(C)C)cc1 | 28.9 µM
COc1ccc(Nc2nc(NCc3ccccc3)c3ccccc3n2)cc1 | > 30 µM
COc1ccc(OC)c(C2C3=C(CC(C)(C)CC3=O)N(c3ccc(Cl)c(Cl)c3)C3=C2C(=O)CC(C)(C)C3)c1 | > 30 µM

Compound | IC50
COc1ccc(CN2CCN(Cc3ccccc3)CC2)c(O)c1 | > 30 µM
COc1cc2c(cc1OC)C1=NNC(=O)C1=NC(C)(C)C2 | > 30 µM
Oc1c(CN2CCN(c3ccccc3F)CC2)cc(Br)c2cccnc12 | > 30 µM
OC(CNCc1ccccc1)Cn1c2ccccc2c2ccccc21 (configuration not stated) | > 30 µM
Oc1c2c(nc3cc(-c4ccccc4)nn13)CCCC2 | 26.2 µM
CCCCc1c(C)nc2c(OC)cccc2c1O | > 30 µM
OC1CCCCC1C1(NC(=S)Nc2ccccc2)CCCCC1 (configuration not stated) | > 30 µM
OC1=C2C(=Nc3ccccc3SC2c2ccc(Br)cc2)c2ccccc21 (configuration not stated) | > 30 µM
COc1ccc(C)c2sc(N(Cc3cccnc3)C(=O)c3ccc(C#N)cc3)nc12 | > 30 µM
Clc1ccc2c(N3CCCC3)ccnc2c1 | 1.49 µM
CCOC(=O)C1CCN(C(=O)CN2C(=O)c3ccccc3C2c2c[nH]c3ccccc23)CC1 (configuration not stated) | > 30 µM
CCOc1ccc(CCNC(=O)c2cccs2)cc1OCC | > 30 µM
COc1ccc(C(=O)C2CC2c2ccc(Cl)cc2)cc1 (configuration not stated) | > 30 µM
Cc1cc(N2CCN(C3CCCC3)CC2)n2c(nc3ccccc32)c1C#N | > 30 µM
CCCCCn1c(=N)n(CC(O)COc2cccc(C)c2)c2ccccc21 (configuration not stated) | 17.9 µM
O=c1c2c([nH]c3ccccc13)CCCC2 | > 30 µM
CCCCOc1ccc(C(=O)Nc2cc(C)on2)cc1 | > 30 µM
CCc1ccc(Nc2cc(C)nc3nc(C)nn23)cc1 | > 30 µM
CCN(CC)S(=O)(=O)c1ccc(-c2csc(Nc3ccc(C)c(C)c3)n2)cc1 | > 30 µM
CCN1CCN(c2c(C(=O)c3ccccc3)cnc3cc(OC)c(OC)cc23)CC1 | > 30 µM
Cc1c(C)n(CC(O)CNC2CCCCC2C)c2ccccc12 (configuration not stated) | > 30 µM
Cc1ccc(S(=O)(=O)c2c(COC(=O)c3cccc(C)c3)c(-c3ccccc3)nn2C)cc1 | > 30 µM
CCCCN(CCCC)S(=O)(=O)c1ccc(NC(=O)c2ccco2)cc1 | 1.07 µM
